Experiments:
Assay in all cases: relative viability (nuclei count vs DMSO), 5 days (fraction); higher = more cells survive
[1] = test system: COR-L 105
Summary of the method: (§1)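 After 5 days of treatment, lung cancer cells in 1536-well plates were fixed and stained in a single step (final 0.05% Triton X-100, 1% formaldehyde, 1 ug/ml Hoechst) and their nuclei counted on 4× images. Treatment had been applied by pin tool the day after seeding as one drug alone or as a fixed anchor-drug dose with five library-drug doses (not always all listed) in √10 steps. Relative viability is the nuclei count of treated wells divided by that of vehicle wells, and values are medians of duplicate plates.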

[2] = test system: COR-L23
Summary of the method: as §1

[3] = test system: HARA
Summary of the method: as §1

[4] = test system: HCC-15
Summary of the method: as §1

[5] = test system: HOP-62
Summary of the method: as §1

[6] = test system: NCI-H1355
Summary of the method: as §1

[7] = test system: NCI-H1734
Summary of the method: as §1

[8] = test system: NCI-H1755
Summary of the method: as §1

[9] = test system: NCI-H1792
Summary of the method: as §1

[10] = test system: NCI-H1993
Summary of the method: as §1

[11] = test system: NCI-H2009
Summary of the method: as §1

[12] = test system: NCI-H2170
Summary of the method: as §1

[13] = test system: NCI-H2228
Summary of the method: as §1

[14] = test system: NCI-H2347
Summary of the method: as §1

[15] = test system: NCI-H358
Summary of the method: as §1

[16] = test system: NCI-H647
Summary of the method: as §1

[17] = test system: NCI-H838
Summary of the method: as §1

[18] = test system: SK-MES-1
Summary of the method: as §1

[19] = test system: UMC-11
Summary of the method: as §1

Compound: CCN(CC)CCCCNc1ncc2cc(-c3cc(OC)cc(OC)c3)c(NC(=O)NC(C)(C)C)nc2n1 + C[C@@H](Oc1cc(-c2cnn(C3CCNCC3)c2)cnc1N)c1c(Cl)ccc(F)c1Cl [Crizotinib] (partner 1 µM)
- relative viability ([1]; first compound 0.01 µM): 0.795
- relative viability ([1]; first compound 0.03162 µM): 0.796
- relative viability ([1]; first compound 0.1 µM): 0.887
- relative viability ([1]; first compound 0.3162 µM): 0.777
- relative viability ([1]; first compound 1 µM): 0.658
- relative viability ([2]; first compound 0.01 µM): 0.697
- relative viability ([2]; first compound 0.03162 µM): 0.656
- relative viability ([2]; first compound 0.1 µM): 0.824
- relative viability ([2]; first compound 0.3162 µM): 0.584
- relative viability ([2]; first compound 1 µM): 0.759
- relative viability ([3]; first compound 0.01 µM): 1.19
- relative viability ([3]; first compound 0.03162 µM): 1.03
- relative viability ([3]; first compound 0.1 µM): 1.26
- relative viability ([3]; first compound 0.3162 µM): 1.17
- relative viability ([3]; first compound 1 µM): 0.816
- relative viability ([4]; first compound 0.01 µM): 0.919
- relative viability ([4]; first compound 0.03162 µM): 0.853
- relative viability ([4]; first compound 0.1 µM): 0.871
- relative viability ([4]; first compound 0.3162 µM): 1.25
- relative viability ([4]; first compound 1 µM): 0.699
- relative viability ([5]; first compound 0.01 µM): 0.967
- relative viability ([5]; first compound 0.03162 µM): 1.14
- relative viability ([5]; first compound 0.1 µM): 0.903
- relative viability ([5]; first compound 0.3162 µM): 1.08
- relative viability ([5]; first compound 1 µM): 1.08
- relative viability ([6]; first compound 0.01 µM): 1.17
- relative viability ([6]; first compound 0.03162 µM): 1.16
- relative viability ([6]; first compound 0.1 µM): 1.05
- relative viability ([6]; first compound 0.3162 µM): 1.11
- relative viability ([6]; first compound 1 µM): 1.06
- relative viability ([7]; first compound 0.01 µM): 0.652
- relative viability ([7]; first compound 0.03162 µM): 0.647
- relative viability ([7]; first compound 0.1 µM): 0.807
- relative viability ([7]; first compound 0.3162 µM): 0.719
- relative viability ([7]; first compound 1 µM): 0.667
- relative viability ([8]; first compound 0.01 µM): 0.928
- relative viability ([8]; first compound 0.03162 µM): 0.94
- relative viability ([8]; first compound 0.1 µM): 1.17
- relative viability ([8]; first compound 0.3162 µM): 0.984
- relative viability ([8]; first compound 1 µM): 0.892
- relative viability ([9]; first compound 0.01 µM): 1.07
- relative viability ([9]; first compound 0.03162 µM): 1.02
- relative viability ([9]; first compound 0.1 µM): 1.33
- relative viability ([9]; first compound 0.3162 µM): 1.41
- relative viability ([9]; first compound 1 µM): 0.541
- relative viability ([10]; first compound 0.01 µM): 0.875
- relative viability ([10]; first compound 0.03162 µM): 0.974
- relative viability ([10]; first compound 0.1 µM): 0.875
- relative viability ([10]; first compound 0.3162 µM): 0.985
- relative viability ([10]; first compound 1 µM): 0.783
- relative viability ([11]; first compound 0.01 µM): 1.1
- relative viability ([11]; first compound 0.03162 µM): 1.08
- relative viability ([11]; first compound 0.1 µM): 1.13
- relative viability ([11]; first compound 0.3162 µM): 1.11
- relative viability ([11]; first compound 1 µM): 0.953
- relative viability ([12]; first compound 0.01 µM): 1.35
- relative viability ([12]; first compound 0.03162 µM): 1.34
- relative viability ([12]; first compound 0.1 µM): 1.32
- relative viability ([12]; first compound 0.3162 µM): 1.27
- relative viability ([12]; first compound 1 µM): 1.16
- relative viability ([13]; first compound 0.01 µM): 0.408
- relative viability ([13]; first compound 0.03162 µM): 0.564
- relative viability ([13]; first compound 0.1 µM): 0.348
- relative viability ([13]; first compound 0.3162 µM): 0.358
- relative viability ([13]; first compound 1 µM): 0.243
- relative viability ([14]; first compound 0.01 µM): 0.766
- relative viability ([14]; first compound 0.03162 µM): 0.62
- relative viability ([14]; first compound 0.1 µM): 0.677
- relative viability ([14]; first compound 0.3162 µM): 0.63
- relative viability ([14]; first compound 1 µM): 0.793
- relative viability ([15]; first compound 0.01 µM): 0.639
- relative viability ([15]; first compound 0.03162 µM): 0.54
- relative viability ([15]; first compound 0.1 µM): 0.728
- relative viability ([15]; first compound 0.3162 µM): 0.671
- relative viability ([15]; first compound 1 µM): 0.469
- relative viability ([16]; first compound 0.01 µM): 1.06
- relative viability ([16]; first compound 0.03162 µM): 1.08
- relative viability ([16]; first compound 0.1 µM): 1.53
- relative viability ([16]; first compound 0.3162 µM): 1.3
- relative viability ([16]; first compound 1 µM): 0.774
- relative viability ([17]; first compound 0.01 µM): 0.919
- relative viability ([17]; first compound 0.03162 µM): 0.84
- relative viability ([17]; first compound 0.1 µM): 0.955
- relative viability ([17]; first compound 0.3162 µM): 0.79
- relative viability ([17]; first compound 1 µM): 0.552
- relative viability ([18]; first compound 0.01 µM): 1.06
- relative viability ([18]; first compound 0.03162 µM): 1.05
- relative viability ([18]; first compound 0.1 µM): 1.14
- relative viability ([18]; first compound 0.3162 µM): 1.03
- relative viability ([18]; first compound 1 µM): 1.01
- relative viability ([19]; first compound 0.01 µM): 0.691
- relative viability ([19]; first compound 0.03162 µM): 0.459
- relative viability ([19]; first compound 0.1 µM): 0.636
- relative viability ([19]; first compound 0.3162 µM): 0.805
- relative viability ([19]; first compound 1 µM): 0.554
